This passage reports EBV-EA activation % of TPA control and viability results from ChEMBL document CHEMBL1147306, “Studies on inhibitors of skin tumor promotion, VI. Inhibitory effects of quinones on Epstein-Barr virus activation” (J Nat Prod, 1989).

Assay type in all cases: cell-based
Data set [1] relates to Raji. As to the kind of experiment: Inhibition of TPA-induced EBV-early antigen activation in human Raji cells at 100 molar ratio after 48 hrs by indirect immunofluorescence technique relative to TPA. Particulars: human gammaherpesvirus 4.
A short description of data set [2]: Cytotoxicity against human Raji cells assessed as cell viability at 1000 molar ratio. Conditions: read-out: Activity.
Data set [3] is described as follows: Cytotoxicity against human Raji cells assessed as cell viability at 10 molar ratio. Conditions: read-out: Activity.
The nature of data set [4]: Cytotoxicity against human Raji cells assessed as cell viability at 500 molar ratio. Conditions: read-out: Activity.
For data set [5], the system named is Raji. Briefly: Inhibition of TPA-induced EBV-early antigen activation in human Raji cells at 500 molar ratio after 48 hrs by indirect immunofluorescence technique relative to TPA. Conditions: human gammaherpesvirus 4.
Data set [6] in a line: Cytotoxicity against human Raji cells assessed as cell viability at 100 molar ratio. Conditions: read-out: Activity.
The test system of data set [7] is Raji. As to the kind of experiment: Inhibition of TPA-induced EBV-early antigen activation in human Raji cells at 10 molar ratio after 48 hrs by indirect immunofluorescence technique relative to TPA. Particulars: human gammaherpesvirus 4.

Turning to `O=C1c2ccccc2C(=O)c2occc21`, the EBV-EA activation % of TPA control in data set [1] came to 0%; in data set [5] it was 0%; in data set [7] it was 59.4%. Also, the viability at 1000 molar ratio in data set [2] is 0%. Further, the viability at 10 molar ratio in data set [3] was 70%. The viability at 500 molar ratio in data set [4] worked out at 10%. The viability at 100 molar ratio in data set [6] came out at 10%.

`COc1ccc(OC)c2c1C(=O)c1nccc(C)c1C2=O`: the EBV-EA activation % of TPA control in data set [1], in data set [5] and in data set [7] was 100% each time. Further, in data set [2], the viability at 1000 molar ratio turned out to be 70%. For the same compound, the viability at 10 molar ratio in data set [3] is more than 80%. In data set [4], the viability at 500 molar ratio is more than 80%. Besides, the viability at 100 molar ratio in data set [6] was more than 80%.

In the case of `CC1=C(C/C=C(\C)CCC[C@H](C)CCC[C@H](C)CCCC(C)C)C(=O)c2ccccc2C1=O` [PHYTONADIONE], the EBV-EA activation % of TPA control in data set [1], in data set [5] and in data set [7] was 100% throughout. Besides, in data set [2], the viability at 1000 molar ratio amounted to 70%. Moreover, in data set [3], the viability at 10 molar ratio is more than 80%. The viability at 500 molar ratio in data set [4] is more than 80%. The viability at 100 molar ratio in data set [6] is more than 80%.

`COc1c(C=O)c(O)cc2c1C(=O)c1ccccc1C2=O` [DAMNACANTHAL]: the EBV-EA activation % of TPA control in data set [1] amounted to 92.8%; in data set [5], 51.6%; in data set [7] it was 100%. Besides, the viability at 1000 molar ratio in data set [2] was found to be 60%. For the same compound, the viability at 10 molar ratio in data set [3] was more than 80%. For the same compound, the viability at 500 molar ratio in data set [4] is more than 80%. Besides, the viability at 100 molar ratio in data set [6] is more than 80%.

For the compound `Cc1ccnc2c1C(=O)c1cc(O)ccc1C2=O`, the EBV-EA activation % of TPA control was found to be 74.4% in data set [1], 73.9% in data set [5] and 100% in data set [7]. In data set [2], the viability at 1000 molar ratio amounted to 60%. The viability at 10 molar ratio in data set [3] is more than 80%. In data set [4], the viability at 500 molar ratio amounted to 60%. Moreover, in data set [6], the viability at 100 molar ratio was more than 80%.

For `O=C1c2ccccc2C(=O)c2c1ccc(O)c2O` [ATHRAQUINONES A], the EBV-EA activation % of TPA control came to 100% in data set [1], 92.4% in data set [5] and 100% in data set [7]. Moreover, the viability at 1000 molar ratio in data set [2] was determined as 60%. The viability at 10 molar ratio in data set [3] was more than 80%. In addition, the viability at 500 molar ratio in data set [4] is more than 80%. In addition, the viability at 100 molar ratio in data set [6] is more than 80%.

As for `O=C1c2ccccc2-c2ncccc21`, the EBV-EA activation % of TPA control worked out at 100% in data set [1], 97.6% in data set [5] and 100% in data set [7]. Further, the viability at 1000 molar ratio in data set [2] is 70%. Further, in data set [3], the viability at 10 molar ratio was more than 80%. In addition, the viability at 500 molar ratio in data set [4] was more than 80%. In data set [6], the viability at 100 molar ratio is more than 80%.

Turning to `CC1C=CNC2=C1C(=O)c1c(O)ccc(O)c1C2=O` (stereo not drawn), the EBV-EA activation % of TPA control in data set [1] amounted to 100%; in data set [5], 20.4%; in data set [7], 100%. For the same compound, the viability at 1000 molar ratio in data set [2] came to 10%. Also, in data set [3], the viability at 10 molar ratio is more than 80%. In addition, the viability at 500 molar ratio in data set [4] is 70%. Besides, the viability at 100 molar ratio in data set [6] is more than 80%.

For the compound `COc1ccc2c(c1)C(=O)c1ccc3c(c1C2=O)OCO3`, the EBV-EA activation % of TPA control was 78.9% in data set [1], 56.8% in data set [5] and 100% in data set [7]. Moreover, in data set [2], the viability at 1000 molar ratio came to 70%. In addition, the viability at 10 molar ratio in data set [3] is more than 80%. For the same compound, the viability at 500 molar ratio in data set [4] is more than 80%. Also, the viability at 100 molar ratio in data set [6] is more than 80%.

As for `Cc1cnc2c(c1)C(=O)c1c(O)ccc(O)c1C2=O`, the EBV-EA activation % of TPA control in data set [1] was 82.6%; in data set [5] it was 16.8%; in data set [7], 100%. Moreover, the viability at 1000 molar ratio in data set [2] amounted to 40%. Moreover, the viability at 10 molar ratio in data set [3] was more than 80%. Further, in data set [4], the viability at 500 molar ratio amounted to 50%. The viability at 100 molar ratio in data set [6] was more than 80%.

Take `Cc1cnc2c(c1)C(=O)c1cccc(O)c1C2=O`: the EBV-EA activation % of TPA control in data set [1] is 72.4%; in data set [5], 15.8%; in data set [7], 100%. Moreover, the viability at 1000 molar ratio in data set [2] was determined as 30%. Further, the viability at 10 molar ratio in data set [3] is more than 80%. For the same compound, in data set [4], the viability at 500 molar ratio is more than 80%. Besides, the viability at 100 molar ratio in data set [6] came to 60%.

As for `O=C1C=CC(=O)c2c(O)cccc21` [JUGLONE], the EBV-EA activation % of TPA control came to 97.8% in data set [1], 13.1% in data set [5] and 100% in data set [7]. Besides, the viability at 1000 molar ratio in data set [2] was 40%. In data set [3], the viability at 10 molar ratio was more than 80%. The viability at 500 molar ratio in data set [4] is 60%. The viability at 100 molar ratio in data set [6] was more than 80%.

`O=C1c2ccccc2C(=O)c2c(O)c(O)cc(O)c21` [PURPURIN]: the EBV-EA activation % of TPA control in data set [1] amounted to 100%; in data set [5], 54.3%; in data set [7], 100%. In addition, the viability at 1000 molar ratio in data set [2] amounted to 70%. Besides, the viability at 10 molar ratio in data set [3] is more than 80%. In addition, the viability at 500 molar ratio in data set [4] is more than 80%. Moreover, the viability at 100 molar ratio in data set [6] is more than 80%.

Take `O=C1c2cccc(O)c2C(=O)c2cccc(O)c21` [ANTHRARUFIN]: the values for the EBV-EA activation % of TPA control in data set [1], in data set [5] and in data set [7] were 92.3%, 70.1% and 100%, respectively. The viability at 1000 molar ratio in data set [2] is 70%. In addition, the viability at 10 molar ratio in data set [3] was more than 80%. In addition, in data set [4], the viability at 500 molar ratio was more than 80%. Moreover, in data set [6], the viability at 100 molar ratio is more than 80%.

In the case of `COc1cccc2c1C(=O)c1ncc(C)cc1C2=O`, the results for the EBV-EA activation % of TPA control in data set [1], in data set [5] and in data set [7] were 100%, 83% and 100%, respectively. The viability at 1000 molar ratio in data set [2] was more than 80%. Besides, the viability at 10 molar ratio in data set [3] was more than 80%. In data set [4], the viability at 500 molar ratio is more than 80%. In data set [6], the viability at 100 molar ratio was more than 80%.

Turning to `Cc1ccnc2c1C(O)c1ccccc1-2` (stereo not drawn), the EBV-EA activation % of TPA control in data set [1], in data set [5] and in data set [7] was 100% throughout. The viability at 1000 molar ratio in data set [2] is more than 80%. In data set [3], the viability at 10 molar ratio was more than 80%. The viability at 500 molar ratio in data set [4] is more than 80%. The viability at 100 molar ratio in data set [6] was more than 80%.

For `O=C1c2ccccc2C(=O)c2cnccc21`, the EBV-EA activation % of TPA control in data set [1] worked out at 69.5%; in data set [5], 13%; in data set [7], 100%. Further, in data set [2], the viability at 1000 molar ratio worked out at 10%. Besides, in data set [3], the viability at 10 molar ratio is more than 80%. Further, in data set [4], the viability at 500 molar ratio turned out to be 10%. For the same compound, the viability at 100 molar ratio in data set [6] is more than 80%.

Take `CN(C)C1=CC(=O)c2c(O)ccc(O)c2C1=O`: the results for the EBV-EA activation % of TPA control in data set [1], in data set [5] and in data set [7] were 87.2%, 28.2% and 100%, respectively. The viability at 1000 molar ratio in data set [2] worked out at 50%. Besides, in data set [3], the viability at 10 molar ratio was more than 80%. The viability at 500 molar ratio in data set [4] is more than 80%. Besides, the viability at 100 molar ratio in data set [6] was more than 80%.

Regarding `COc1c(CO)c(O)cc2c1C(=O)c1cccc(O)c1C2=O` [JUZUNOL], the EBV-EA activation % of TPA control in data set [1], in data set [5] and in data set [7] was 100% throughout. Besides, the viability at 1000 molar ratio in data set [2] is more than 80%. In data set [3], the viability at 10 molar ratio was more than 80%. For the same compound, the viability at 500 molar ratio in data set [4] is more than 80%. In data set [6], the viability at 100 molar ratio was more than 80%.

`CN(C)C1=CC(=O)c2ccccc2C1=O`: the EBV-EA activation % of TPA control was 92.5% in data set [1], 89.2% in data set [5] and 100% in data set [7]. Further, the viability at 1000 molar ratio in data set [2] is more than 80%. In addition, the viability at 10 molar ratio in data set [3] was more than 80%. In addition, in data set [4], the viability at 500 molar ratio is more than 80%. Further, the viability at 100 molar ratio in data set [6] was more than 80%.

For the compound `COCc1c(O)cc2c(c1O)C(=O)c1ccccc1C2=O`, the EBV-EA activation % of TPA control in data set [1] was determined as 80.4%; in data set [5], 77%; in data set [7] it was 100%. For the same compound, the viability at 1000 molar ratio in data set [2] is 60%. For the same compound, the viability at 10 molar ratio in data set [3] was more than 80%. Moreover, the viability at 500 molar ratio in data set [4] was more than 80%. In addition, in data set [6], the viability at 100 molar ratio is more than 80%.

Regarding `O=C1c2ccccc2C(=O)c2c(O)ccc(O)c21` [QUINIZARIN], the EBV-EA activation % of TPA control in data set [1], in data set [5] and in data set [7] was 100% throughout. Moreover, in data set [2], the viability at 1000 molar ratio is 70%. In addition, the viability at 10 molar ratio in data set [3] was more than 80%. In addition, in data set [4], the viability at 500 molar ratio is more than 80%. Also, in data set [6], the viability at 100 molar ratio is more than 80%.

Regarding `Cc1ccnc2c1C(=O)c1ccccc1-2` [ONYCHINE], the EBV-EA activation % of TPA control in data set [1] worked out at 100%; in data set [5], 94.1%; in data set [7], 100%. Further, the viability at 1000 molar ratio in data set [2] was found to be 70%. Also, the viability at 10 molar ratio in data set [3] was more than 80%. The viability at 500 molar ratio in data set [4] was more than 80%. Further, in data set [6], the viability at 100 molar ratio is more than 80%.

Consider `CN(C)C1=CC(=O)c2cccc(O)c2C1=O`, for which the values for the EBV-EA activation % of TPA control in data set [1], in data set [5] and in data set [7] were 89.7%, 53.8% and 100%, respectively. For the same compound, the viability at 1000 molar ratio in data set [2] was more than 80%. For the same compound, the viability at 10 molar ratio in data set [3] is more than 80%. In data set [4], the viability at 500 molar ratio was more than 80%. In addition, in data set [6], the viability at 100 molar ratio was more than 80%.
